Test results from US6177469A, “Lipid alcohols as new immunosuppressive and antiviral drugs” (priority 1995, dated 2001).
Where two headings read alike, the source gives them in different places.

Tests used:
HIV-1 = assay: anti-HIV-1 activity, standard plaque assay of a CEM-SS cell monolayer; assay type: cell-based; conditions: for IC50: read-out: IC50 anti-HIV-1; for Diff. selectivity: quotient of cytotoxicity IC50 and anti-HIV 1 IC50
Procedure: (§1) The cell cytotoxicity and the anti-HIV-1-activity in CEM-SS cells of selected lipid alcohols are stated in table 1.
(§2) The cytotoxicity was determined by uptake of TdR-^3 H into the total DNA at various concentrations of the stated compounds. The anti-HIV 1 activity was determined using a standard plaque assay of a CEM-SS cell monolayer. The differential selectivity results from the quotient of the IC50 and anti-HIV 1 activity concentrations. ND means not determined.

[1] = cytotoxicity in CEM-SS cells by uptake of TdR-^3H into total DNA; assay type: cell-based; conditions: human, TdR-^3H uptake into total DNA, read-out: IC50 cytotoxicity
Procedure: as §1, §2

[2] = Human immunodeficiency virus 1, CEM-SS cell monolayer, plaque assay

| SMILES | IC50 (HIV-1; Human immunodeficiency virus 1, CEM-SS) [µM] | Diff. selectivity (HIV-1) | CC50 [1] [µM] | IC50 (HIV-1; [2]) [µM] |
| --- | --- | --- | --- | --- |
| CCCCCCCCCCOC(CO)CSCC(C)CCCCCCCCC (stereo not shown) [3-(2-methyl-undecyl)mercapto-2-decyloxy-1-propanol] | 51.2 | > 1.95 | > 100 |  |
| CCCCCCCCCCCCOC(CO)CSCCCCCCCCCCCC (stereo not shown) [3-dodecylmercapto-2-dodecyloxy-1-propanol] |  |  | > 100 | > 20 |
| CCCCCCCCCCCCSCC(CO)OCCCCCCCC (stereo not shown) [3-dodecylmercapto-2-octyloxy-1-propanol] |  | > 12.92 | > 90.6 | 7.01 |
| CCCCCCCCCCCC[S+]([O-])CC(CO)OCCCCCCCCCC (stereo not shown) [3-dodecylsulfinyl-2-decyloxy-1-propanol] |  | 204.22 | 36.8 | 0.18 |
| CCCCCCCCCCCCS(=O)(=O)CC(CO)OCCCCCCCCCC (stereo not shown) [3-dodecylsulfonyl-2-decyloxy-1-propanol] |  | 60.52 | 32.7 | 0.54 |
| CCCCCCCCCCCCCCSCC(CO)OCCCCCCCCCC (stereo not shown) [3-tetradecylmercapto-2-decyloxy-1-propanol] |  |  | > 100 | > 20 |
| CCCCCCCCCCCOC(CO)CSCCCCCCCCCCC (stereo not shown) [3-undecylmercapto-2-undecyloxy-1-propanol] |  | > 33.90 | > 100 | 2.95 |
